Reference: the supplement of paper PMC10307832

How the values were obtained:
Test in all cases: relative viability (nuclei count vs DMSO), 5 days (fraction); higher = more cells survive
[1] = compound: CC1=CC=C(C=C1)C(=O)CN2C3=C(CCCC3)SC2=N [Pifithrin_alpha] + Cc1cc(Nc2cc(N3CCN(C)CC3)nc(Sc3ccc(NC(=O)C4CC4)cc3)n2)n[nH]1 [Tozasertib] (partner 0.1 µM)
In short: (§1)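 Values are medians from duplicate plates. Each reflects relative viability, defined as the nuclei count of treated wells over that of vehicle wells. Lung cancer cell lines in 1536-well plates were pin-tool dosed one day after seeding with one drug alone or with a fixed anchor-drug dose plus five library-drug doses (not always all listed) in √10 steps, then fixed, stained and imaged at 4× after 5 days.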

[2] = compound: Nc1nc(Nc2ccc3c(c2)CC[C@@H](N2CCCC2)CC3)nn1-c1cc2c(nn1)-c1ccccc1CCC2 [Bemcentinib] + CS(=O)(=O)N1CCN(Cc2cc3nc(-c4cccc5[nH]ncc45)nc(N4CCOCC4)c3s2)CC1 [Pictilisib] (partner 1 µM)
In short: as §1

[3] = compound: Nc1nc(Nc2ccc3c(c2)CC[C@@H](N2CCCC2)CC3)nn1-c1cc2c(nn1)-c1ccccc1CCC2 [Bemcentinib] + CC(C)C[C@H](NC(=O)[C@H](Cc1ccccc1)NC(=O)c1cnccn1)B(O)O [Bortezomib] (partner 0.002 µM)
In short: as §1

[4] = compound: Nc1nc(Nc2ccc3c(c2)CC[C@@H](N2CCCC2)CC3)nn1-c1cc2c(nn1)-c1ccccc1CCC2 [Bemcentinib] + O=C(c1cc(Cc2n[nH]c(=O)c3ccccc23)ccc1F)N1CCN(C(=O)C2CC2)CC1 [Olaparib] (partner 8 µM)
In short: as §1

Row | Cell Line | relative viability ([1]; first compound 3.162 µM) | relative viability ([1]; first compound 10 µM) | relative viability ([1]; first compound 100 µM) | relative viability ([2]; first compound 0.04 µM) | relative viability ([2]; first compound 0.1265 µM) | relative viability ([2]; first compound 0.4 µM) | relative viability ([2]; first compound 1.265 µM) | relative viability ([2]; first compound 4 µM) | relative viability ([3]; first compound 0.04 µM) | relative viability ([3]; first compound 0.1265 µM) | relative viability ([3]; first compound 0.4 µM) | relative viability ([3]; first compound 1.265 µM) | relative viability ([3]; first compound 4 µM) | relative viability ([4]; first compound 0.04 µM) | relative viability ([4]; first compound 0.1265 µM) | relative viability ([4]; first compound 0.4 µM) | relative viability ([4]; first compound 1.265 µM) | relative viability ([4]; first compound 4 µM) | relative viability ([1]; first compound 1 µM) | relative viability ([1]; first compound 31.62 µM)
1 | LC-2-ad | 0.357 | 0.379 | 0.311 | 0.456 | 0.536 | 0.553 | 0.426 | 0.424 | 1 | 1.01 | 1.11 | 0.968 | 0.982 | 0.719 | 0.676 | 0.767 | 0.711 | 0.655 | – | –
2 | HCC-78 | 0.543 | 0.423 | 0.404 | 0.144 | 0.211 | 0.202 | 0.197 | 0.202 | 0.485 | 0.516 | 0.556 | 0.541 | 0.491 | 0.919 | 0.794 | 0.971 | 0.808 | 0.833 | 0.56 | 0.35
3 | NCI-H322M | 0.483 | 0.493 | 0.486 | 0.512 | 0.522 | 0.418 | 0.525 | 0.564 | 1.25 | 1.25 | 1.23 | 1.34 | 1.34 | 0.796 | 0.84 | 0.844 | 0.854 | 0.839 | 0.51 | 0.449
4 | NCI-H1651 | 0.592 | 0.403 | 0.384 | 0.622 | 0.678 | 0.64 | 0.451 | 0.739 | 0.955 | 1.05 | 1.03 | 0.745 | 0.878 | 0.201 | 0.204 | 0.187 | 0.189 | 0.191 | 0.678 | 0.33
5 | NCI-H1437 | 0.478 | 0.403 | 0.409 | 0.457 | 0.479 | 0.418 | 0.409 | 0.448 | 0.54 | 0.546 | 0.503 | 0.405 | 0.489 | 0.639 | 0.656 | 0.718 | 0.651 | 0.592 | 0.502 | 0.364
6 | NCI-H1355 | 0.389 | 0.328 | 0.294 | 0.405 | 0.389 | 0.452 | 0.444 | 0.458 | 1.22 | 1.3 | 1.15 | 1.24 | 1.26 | 0.748 | 0.811 | 0.766 | 0.773 | 0.75 | 0.471 | 0.302
7 | NCI-H1755 | 0.449 | 0.492 | 0.54 | 0.331 | 0.459 | 0.496 | 0.485 | 0.443 | 0.982 | 1 | 0.973 | 0.995 | 0.961 | 0.92 | 0.868 | 0.929 | 0.951 | 0.935 | 0.67 | 0.424
8 | SK-LU-1 | 0.329 | 0.291 | 0.316 | 0.557 | 0.572 | 0.619 | 0.587 | 0.679 | 1.02 | 1.35 | 1.38 | 1.3 | 1.25 | 0.456 | 0.569 | 0.452 | 0.47 | 0.488 | 0.291 | –
9 | NCI-H2126 | 0.772 | 0.602 | 0.432 | 0.475 | 0.483 | 0.531 | 0.485 | 0.485 | 1.11 | 1.07 | 1.18 | 1.16 | 1.13 | 0.999 | 0.931 | 0.948 | 1.01 | 0.916 | 0.568 | 0.596
10 | HOP-62 | 0.584 | 0.355 | 0.344 | 0.661 | 0.82 | – | 0.712 | 0.92 | 0.753 | 0.822 | – | 0.779 | 0.736 | 0.342 | 0.621 | 0.575 | 0.528 | 0.472 | 0.385 | 0.358
11 | NCI-H2347 | 0.543 | 0.382 | 0.501 | 0.511 | 0.488 | 0.708 | 0.82 | 0.649 | 0.831 | 1.03 | 0.967 | 0.901 | 1.11 | 0.58 | 0.587 | 0.553 | 0.659 | 0.611 | 0.614 | 0.412
12 | HCC-15 | 0.544 | 0.245 | 0.165 | 0.747 | 0.767 | 0.822 | 0.738 | 0.781 | 0.931 | 1.19 | 1.12 | 1 | 1.07 | 0.7 | 0.712 | 0.771 | 0.655 | 0.748 | 0.463 | 0.212
13 | HCC-44 | 1.07 | 0.685 | 0.452 | 0.698 | 0.618 | 0.599 | 0.625 | 0.651 | 0.974 | 0.92 | 0.992 | 0.89 | 0.917 | 1.04 | 1.04 | 0.981 | 0.974 | 1.02 | 0.748 | 0.461
14 | PC-14 | 0.576 | 0.551 | 0.291 | 0.651 | 0.792 | 0.628 | 0.509 | 0.704 | 0.86 | 0.849 | 0.934 | 0.911 | 1 | 0.279 | 0.433 | 0.235 | 0.225 | 0.187 | – | 0.396
15 | NCI-H2085 | 0.467 | 0.427 | 0.489 | 0.44 | 0.468 | 0.418 | 0.459 | 0.451 | 1.01 | 1.11 | 1.03 | 0.997 | 0.973 | 0.747 | 0.707 | 0.768 | 0.755 | 0.741 | 0.828 | 0.478
16 | HCC-827 | 0.522 | 0.381 | 0.353 | 1.11 | 0.943 | 1.05 | 0.877 | 1.07 | 0.979 | 1.05 | 1.16 | 0.762 | 1.06 | 0.669 | 0.691 | 0.554 | 0.623 | 0.625 | 0.422 | 0.337
